# Test results taken from PubChem BioAssay (NCI).
#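 Tested at 5 concentrations; 48 h exposure; 96-well plates; endpoints linearly interpolated, else capped at highest concentration. Here, GI50 denotes the concentration required for 50% inhibition of growth. TGI: total growth inhibition.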
# Assays:
# Assay in all cases: inhibition of tumour cell growth, NCI panel, 48 h
# 786-0 renal = test system: 786-0 renal
# A549 NSCLC = test system: A549 NSCLC
# ACHN renal = test system: ACHN renal
# CCRF-CEM leukemia = test system: CCRF-CEM leukemia
# COLO 205 colon = test system: COLO 205 colon
# DLD-1 colon = test system: DLD-1 colon
# DMS 114 small cell lung = test system: DMS 114 small cell lung
# DMS 273 small cell lung = test system: DMS 273 small cell lung
# EKVX NSCLC = test system: EKVX NSCLC
# HCT-116 colon = test system: HCT-116 colon
# HCT-15 colon = test system: HCT-15 colon
# HL-60(TB) leukemia = test system: HL-60(TB) leukemia
# HOP-18 NSCLC = test system: HOP-18 NSCLC
# HOP-62 NSCLC = test system: HOP-62 NSCLC
# HT29 colon = test system: HT29 colon
# IGROV1 ovarian = test system: IGROV1 ovarian
# K-562 leukemia = test system: K-562 leukemia
# KM12 colon = test system: KM12 colon
# KM20L2 colon = test system: KM20L2 colon
# LOX IMVI melanoma = test system: LOX IMVI melanoma
# M14 melanoma = test system: M14 melanoma
# M19-MEL melanoma = test system: M19-MEL melanoma
# MALME-3M melanoma = test system: MALME-3M melanoma
# MOLT-4 leukemia = test system: MOLT-4 leukemia
# NCI-H226 lung = test system: NCI-H226 lung
# NCI-H23 lung = test system: NCI-H23 lung
# NCI-H460 lung = test system: NCI-H460 lung
# NCI-H522 lung = test system: NCI-H522 lung
# OVCAR-3 ovarian = test system: OVCAR-3 ovarian
# OVCAR-8 ovarian = test system: OVCAR-8 ovarian
# RPMI-8226 leukemia = test system: RPMI-8226 leukemia
# RXF 393 renal = test system: RXF 393 renal
# SF-295 CNS = test system: SF-295 CNS
# SF-539 CNS = test system: SF-539 CNS
# SK-MEL-2 melanoma = test system: SK-MEL-2 melanoma
# SK-MEL-28 melanoma = test system: SK-MEL-28 melanoma
# SK-MEL-5 melanoma = test system: SK-MEL-5 melanoma
# SK-OV-3 ovarian = test system: SK-OV-3 ovarian
# SN12C renal = test system: SN12C renal
# SNB-19 CNS = test system: SNB-19 CNS
# SNB-75 CNS = test system: SNB-75 CNS
# SW-620 colon = test system: SW-620 colon
# TK-10 renal = test system: TK-10 renal
# U251 CNS = test system: U251 CNS
# UACC-257 melanoma = test system: UACC-257 melanoma
# UACC-62 melanoma = test system: UACC-62 melanoma
# UO-31 renal = test system: UO-31 renal
# A498 renal = test system: A498 renal
# CAKI-1 renal = test system: CAKI-1 renal
# HCC-2998 colon = test system: HCC-2998 colon
# HOP-92 NSCLC = test system: HOP-92 NSCLC
# LXFL 529 NSCLC = test system: LXFL 529 NSCLC
# OVCAR-4 ovarian = test system: OVCAR-4 ovarian
# OVCAR-5 ovarian = test system: OVCAR-5 ovarian
# SF-268 CNS = test system: SF-268 CNS
# SNB-78 CNS = test system: SNB-78 CNS
# SR leukemia = test system: SR leukemia
smiles,measurement,setting,value
O=C([O-])c1cc(I)cc(I)c1[OH2+].O=C([O-])c1cc(I)cc(I)c1[OH2+].[Mn+2],GI50,786-0 renal,51 µM
same,TGI,786-0 renal,> 100 µM
same,GI50,A549 NSCLC,56.4 µM
same,TGI,A549 NSCLC,> 100 µM
same,GI50,ACHN renal,20.3 µM
same,TGI,ACHN renal,59 µM
same,GI50,CCRF-CEM leukemia,> 100 µM
same,TGI,CCRF-CEM leukemia,> 100 µM
same,GI50,COLO 205 colon,> 100 µM
same,TGI,COLO 205 colon,> 100 µM
same,GI50,DLD-1 colon,> 100 µM
same,TGI,DLD-1 colon,> 100 µM
same,GI50,DMS 114 small cell lung,32 µM
same,TGI,DMS 114 small cell lung,> 100 µM
same,GI50,DMS 273 small cell lung,37.7 µM
same,TGI,DMS 273 small cell lung,> 100 µM
same,GI50,EKVX NSCLC,72.3 µM
same,TGI,EKVX NSCLC,> 100 µM
same,GI50,HCT-116 colon,36.7 µM
same,TGI,HCT-116 colon,> 100 µM
same,GI50,HCT-15 colon,> 100 µM
same,TGI,HCT-15 colon,> 100 µM
same,GI50,HL-60(TB) leukemia,> 100 µM
same,TGI,HL-60(TB) leukemia,> 100 µM
same,GI50,HOP-18 NSCLC,> 100 µM
same,TGI,HOP-18 NSCLC,> 100 µM
same,GI50,HOP-62 NSCLC,35.2 µM
same,TGI,HOP-62 NSCLC,> 100 µM
same,GI50,HT29 colon,97.8 µM
same,TGI,HT29 colon,> 100 µM
same,GI50,IGROV1 ovarian,19.4 µM
same,TGI,IGROV1 ovarian,49.4 µM
same,GI50,K-562 leukemia,> 100 µM
same,TGI,K-562 leukemia,> 100 µM
same,GI50,KM12 colon,67.3 µM
same,TGI,KM12 colon,> 100 µM
same,GI50,KM20L2 colon,> 100 µM
same,TGI,KM20L2 colon,> 100 µM
same,GI50,LOX IMVI melanoma,46.2 µM
same,TGI,LOX IMVI melanoma,> 100 µM
same,GI50,M14 melanoma,42.9 µM
same,TGI,M14 melanoma,> 100 µM
same,GI50,M19-MEL melanoma,81.7 µM
same,TGI,M19-MEL melanoma,> 100 µM
same,GI50,MALME-3M melanoma,33.9 µM
same,TGI,MALME-3M melanoma,> 100 µM
same,GI50,MOLT-4 leukemia,> 100 µM
same,TGI,MOLT-4 leukemia,> 100 µM
same,GI50,NCI-H226 lung,33.7 µM
same,TGI,NCI-H226 lung,74.1 µM
same,GI50,NCI-H23 lung,30.4 µM
same,TGI,NCI-H23 lung,89.4 µM
same,GI50,NCI-H460 lung,64 µM
same,TGI,NCI-H460 lung,> 100 µM
same,GI50,NCI-H522 lung,22.2 µM
same,TGI,NCI-H522 lung,69.2 µM
same,GI50,OVCAR-3 ovarian,24 µM
same,TGI,OVCAR-3 ovarian,77.6 µM
same,GI50,OVCAR-8 ovarian,34.2 µM
same,TGI,OVCAR-8 ovarian,> 100 µM
same,GI50,RPMI-8226 leukemia,> 100 µM
same,TGI,RPMI-8226 leukemia,> 100 µM
same,GI50,RXF 393 renal,17.8 µM
same,TGI,RXF 393 renal,40.2 µM
same,GI50,SF-295 CNS,33.5 µM
same,TGI,SF-295 CNS,> 100 µM
same,GI50,SF-539 CNS,24.8 µM
same,TGI,SF-539 CNS,60 µM
same,GI50,SK-MEL-2 melanoma,48.5 µM
same,TGI,SK-MEL-2 melanoma,> 100 µM
same,GI50,SK-MEL-28 melanoma,> 100 µM
same,TGI,SK-MEL-28 melanoma,> 100 µM
same,GI50,SK-MEL-5 melanoma,> 100 µM
same,TGI,SK-MEL-5 melanoma,> 100 µM
same,GI50,SK-OV-3 ovarian,20 µM
same,TGI,SK-OV-3 ovarian,44.2 µM
same,GI50,SN12C renal,18.9 µM
same,TGI,SN12C renal,42.9 µM
same,GI50,SNB-19 CNS,29 µM
same,TGI,SNB-19 CNS,87.7 µM
same,GI50,SNB-75 CNS,60.1 µM
same,TGI,SNB-75 CNS,99.8 µM
same,GI50,SW-620 colon,53.2 µM
same,TGI,SW-620 colon,> 100 µM
same,GI50,TK-10 renal,32.1 µM
same,TGI,TK-10 renal,> 100 µM
same,GI50,U251 CNS,21.5 µM
same,TGI,U251 CNS,61.3 µM
same,GI50,UACC-257 melanoma,18.8 µM
same,TGI,UACC-257 melanoma,43.1 µM
same,GI50,UACC-62 melanoma,45.7 µM
same,TGI,UACC-62 melanoma,> 100 µM
same,GI50,UO-31 renal,35.6 µM
same,TGI,UO-31 renal,> 100 µM
CC1CCC(=O)NCCCCC(=O)N1 (centres undefined),TGI,786-0 renal,> 100 µM
same,TGI,A498 renal,> 100 µM
same,TGI,A549 NSCLC,> 100 µM
same,TGI,ACHN renal,> 100 µM
same,TGI,CAKI-1 renal,> 100 µM
same,TGI,CCRF-CEM leukemia,> 100 µM
same,TGI,COLO 205 colon,> 100 µM
same,TGI,DLD-1 colon,> 100 µM
same,TGI,DMS 114 small cell lung,> 100 µM
same,TGI,DMS 273 small cell lung,> 100 µM
same,TGI,EKVX NSCLC,> 100 µM
same,TGI,HCC-2998 colon,> 100 µM
same,TGI,HCT-116 colon,> 100 µM
same,TGI,HL-60(TB) leukemia,> 100 µM
same,TGI,HOP-62 NSCLC,> 100 µM
same,TGI,HOP-92 NSCLC,> 100 µM
same,TGI,HT29 colon,> 100 µM
same,TGI,IGROV1 ovarian,> 100 µM
same,TGI,K-562 leukemia,> 100 µM
same,TGI,KM12 colon,> 100 µM
same,TGI,KM20L2 colon,> 100 µM
same,TGI,LOX IMVI melanoma,> 100 µM
same,TGI,LXFL 529 NSCLC,> 100 µM
same,TGI,M14 melanoma,> 100 µM
same,TGI,M19-MEL melanoma,> 100 µM
same,TGI,MALME-3M melanoma,> 100 µM
same,TGI,MOLT-4 leukemia,> 100 µM
same,TGI,NCI-H226 lung,> 100 µM
same,TGI,NCI-H23 lung,> 100 µM
same,TGI,NCI-H460 lung,> 100 µM
same,TGI,NCI-H522 lung,> 100 µM
same,TGI,OVCAR-3 ovarian,> 100 µM
same,TGI,OVCAR-4 ovarian,> 100 µM
same,TGI,OVCAR-5 ovarian,> 100 µM
same,TGI,OVCAR-8 ovarian,> 100 µM
same,TGI,RPMI-8226 leukemia,> 100 µM
same,TGI,RXF 393 renal,> 100 µM
same,TGI,SF-268 CNS,> 100 µM
same,TGI,SF-295 CNS,> 100 µM
same,TGI,SF-539 CNS,> 100 µM
same,TGI,SK-MEL-2 melanoma,> 100 µM
same,TGI,SK-MEL-28 melanoma,> 100 µM
same,TGI,SK-MEL-5 melanoma,> 100 µM
same,TGI,SK-OV-3 ovarian,> 100 µM
same,TGI,SN12C renal,> 100 µM
same,TGI,SNB-19 CNS,> 100 µM
same,TGI,SNB-75 CNS,> 100 µM
same,TGI,SNB-78 CNS,> 100 µM
same,TGI,SR leukemia,> 100 µM
same,TGI,SW-620 colon,> 100 µM
same,TGI,TK-10 renal,> 100 µM
same,TGI,U251 CNS,> 100 µM
same,TGI,UACC-257 melanoma,> 100 µM
same,TGI,UACC-62 melanoma,> 100 µM
same,TGI,UO-31 renal,> 100 µM
